Among the data in PubChem BioAssay AID248 (DTP/NCI, 2004) are T/C values, retold here.

Each structure is given as a SMILES string. Where “and” joins values, the source holds several entries; their conditions need not be identical. Equal entries are not always repeated. Inconclusive results and toxic doses are left out.

The subject of this experiment is L1210 leukemia ip in BDF1 mice, survival T/C. In words: NCI In Vivo Anticancer Drug Screen. Data for tumor model L1210 Leukemia (intraperitoneal) in B6D2F1 (BDF1) mice. The settings on record: endpoint: mean survival time, higher = longer survival. An outline of the steps:
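Mice bearing the transplanted tumor received compound or vehicle. Survival of the treated group was divided by that of the vehicle-treated control group to give the ratio.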

Regarding `NC(=S)N/N=C/c1ccccn1`, the T/C was 97 % of control and 115 % of control (dose: 0.48 mg/kg/injection, schedule: Q01DX009 (ip), vehicle: saline with Tween-80); 100 % of control and 107 % of control (dose: 0.9 mg/kg/injection, schedule: Q04DX002 (ip), vehicle: saline with Tween-80); 106 % of control and 115 % of control (dose: 0.95 mg/kg/injection, schedule: Q01DX009 (ip), vehicle: saline with Tween-80); 117 % of control (dose: 1.0 mg/kg/injection, schedule: Q03HX032 (ip), vehicle: other); 118 % of control (dose: 1.3 mg/kg/injection, schedule: Q01DX Z (ip), vehicle: carboxymethylcellulose (CMC)); 92 % of control (dose: 1.8 mg/kg/injection, schedule: Q03HX024 (ip), vehicle: carboxymethylcellulose (CMC)). The T/C runs as follows: (dose: 1.8 mg/kg/injection, schedule: Q03HX024 (ip), vehicle: other) 111 % of control; (dose: 1.8 mg/kg/injection, schedule: Q04DX002 (ip), vehicle: saline with Tween-80) 106 % of control and 110 % of control; (dose: 1.9 mg/kg/injection, schedule: Q01DX009 (ip), vehicle: saline with Tween-80) 113 % of control and 121 % of control; (dose: 2.6 mg/kg/injection, schedule: Q03HX032 (ip), vehicle: other) 213 % of control; (dose: 3.0 mg/kg/injection, schedule: Q01DX015 (ip), vehicle: saline) 105 % of control; (dose: 3.0 mg/kg/injection, schedule: Q03HX032 (ip), vehicle: other) 168 % of control. For the same compound, the T/C runs as follows: (dose: 3.5 mg/kg/injection, schedule: Q03HX008 (ip), vehicle: other) 164 % of control; (dose: 3.5 mg/kg/injection, schedule: Q03HX016 (ip), vehicle: other) 192 % of control; (dose: 3.5 mg/kg/injection, schedule: Q03HX024 (ip), vehicle: other) 368 % of control; (dose: 3.5 mg/kg/injection, schedule: Q04DX002 (ip), vehicle: saline with Tween-80) 104 % of control and 91 % of control; (dose: 3.8 mg/kg/injection, schedule: Q01DX009 (ip), vehicle: saline with Tween-80) 121 % of control; (dose: 4.0 mg/kg/injection, schedule: Q03HX024 (ip), vehicle: carboxymethylcellulose (CMC)) 197 % of control. Further, the T/C runs as follows: (dose: 4.0 mg/kg/injection, schedule: Q03HX024 (ip), vehicle: other) 337 % of control; (dose: 4.0 mg/kg/injection, schedule: Q03HX024 (ip), vehicle: saline with Tween-80) 345 % of control; (dose: 4.4 mg/kg/injection, schedule: Q01DX009 (ip), vehicle: saline) 114 % of control; (dose: 4.4 mg/kg/injection, schedule: Q02DX010 (ip), vehicle: carboxymethylcellulose (CMC)) 114 % of control; (dose: 5.0 mg/kg/injection, schedule: Q01DX015 (ip), vehicle: saline) 103 % of control; (dose: 5.0 mg/kg/injection, schedule: Q03HX008 (ip), vehicle: other) 175 % of control. For the same compound, the T/C reads like this: (dose: 5.0 mg/kg/injection, schedule: Q03HX016 (ip), vehicle: other) 261 % of control; (dose: 5.0 mg/kg/injection, schedule: Q03HX024 (ip), vehicle: other) 526 % of control; (dose: 5.0 mg/kg/injection, schedule: Q03HX032 (ip), vehicle: other) 420 % of control; (dose: 5.0 mg/kg/injection, schedule: Q04DX003 (ip), vehicle: other) 105 % of control; (dose: 5.0 mg/kg/injection, schedule: Q04DX003 (ip), vehicle: saline with Tween-80) 116 % of control; (dose: 5.0 mg/kg/injection, schedule: Q08DX002 (ip), vehicle: other) 102 % of control. In addition, the T/C runs as follows: (dose: 6.0 mg/kg/injection, schedule: Q03HX024 (ip), vehicle: saline with Tween-80) 376 % of control; (dose: 6.6 mg/kg/injection, schedule: Q02DX010 (ip), vehicle: carboxymethylcellulose (CMC)) 121 % of control; (dose: 6.7 mg/kg/injection, schedule: Q01DX015 (ip), vehicle: other) 169 % of control; (dose: 6.7 mg/kg/injection, schedule: Q02DX010 (ip), vehicle: carboxymethylcellulose (CMC)) 114 % of control; (dose: 7.0 mg/kg/injection, schedule: Q01DX015 (ip), vehicle: saline) 152 % of control; (dose: 7.0 mg/kg/injection, schedule: Q04DX002 (ip), vehicle: saline with Tween-80) 107 % of control and 116 % of control. In addition, the T/C is 150 % of control (dose: 7.5 mg/kg/injection, schedule: Q03HX032 (ip), vehicle: other); 101 % of control (dose: 8.0 mg/kg/injection, schedule: Q04DX003 (ip), vehicle: other); 104 % of control (dose: 8.0 mg/kg/injection, schedule: Q08DX002 (ip), vehicle: other); 155 % of control (dose: 10.0 mg/kg/injection, schedule: Q01DX009 (ip), vehicle: other); 114 % of control (dose: 10.0 mg/kg/injection, schedule: Q01DX009 (ip), vehicle: saline); 164 % of control (dose: 10.0 mg/kg/injection, schedule: Q01DX015 (ip), vehicle: other). In addition, the T/C is 120 % of control (dose: 10.0 mg/kg/injection, schedule: Q02DX010 (ip), vehicle: carboxymethylcellulose (CMC)); 114 % of control (dose: 10.0 mg/kg/injection, schedule: Q04DX003 (ip), vehicle: saline with Tween-80); 116 % of control (dose: 10.7 mg/kg/injection, schedule: Q01DX Z (ip), vehicle: carboxymethylcellulose (CMC)); 116 % of control (dose: 11.0 mg/kg/injection, schedule: Q01DX015 (ip), vehicle: saline); 107 % of control (dose: 12.0 mg/kg/injection, schedule: Q04DX003 (ip), vehicle: other); 100 % of control (dose: 12.0 mg/kg/injection, schedule: Q08DX002 (ip), vehicle: other). Moreover, the T/C was 110 % of control and 112 % of control (dose: 14.0 mg/kg/injection, schedule: Q04DX002 (ip), vehicle: saline with Tween-80); 105 % of control (dose: 14.5 mg/kg/injection, schedule: Q01DX001 (ip), vehicle: other); 159 % of control (dose: 15.0 mg/kg/injection, schedule: Q01DX009 (ip), vehicle: other); 120 % of control and 121 % of control (2×) (dose: 15.0 mg/kg/injection, schedule: Q02DX010 (ip), vehicle: carboxymethylcellulose (CMC)); 104 % of control (dose: 17.0 mg/kg/injection, schedule: Q01DX015 (ip), vehicle: saline); 112 % of control (dose: 18.0 mg/kg/injection, schedule: Q04DX003 (ip), vehicle: other). The T/C runs as follows: (dose: 18.0 mg/kg/injection, schedule: Q08DX002 (ip), vehicle: other) 97 % of control; (dose: 20.0 mg/kg/injection, schedule: Q04DX003 (ip), vehicle: saline with Tween-80) 109 % of control; (dose: 22.0 mg/kg/injection, schedule: Q01DX001 (ip), vehicle: other) 101 % of control and 114 % of control; (dose: 22.5 mg/kg/injection, schedule: Q02DX010 (ip), vehicle: carboxymethylcellulose (CMC)) 109 % of control and 90 % of control; (dose: 25.0 mg/kg/injection, schedule: Q01DX015 (ip), vehicle: saline) 90 % of control; (dose: 27.0 mg/kg/injection, schedule: Q04DX003 (ip), vehicle: other) 104 % of control. The T/C by setting is: (dose: 27.0 mg/kg/injection, schedule: Q08DX002 (ip), vehicle: other) 95 % of control; (dose: 28.0 mg/kg/injection, schedule: Q04DX002 (ip), vehicle: saline with Tween-80) 104 % of control and 107 % of control; (dose: 30.0 mg/kg/injection, schedule: Q01DX009 (ip), vehicle: saline with Tween-80) 90 % of control; (dose: 33.0 mg/kg/injection, schedule: Q01DX001 (ip), vehicle: other) 105 % of control and 112 % of control; (dose: 34.0 mg/kg/injection, schedule: Q02DX010 (ip), vehicle: carboxymethylcellulose (CMC)) 73 % of control and 89 % of control; (dose: 50.0 mg/kg/injection, schedule: Q01DX001 (ip), vehicle: other) 104 % of control.

Take `CC(C)(C)N=C(N)N[N+](=O)[O-]`: the T/C is, setting by setting: (dose: 50.0 mg/kg/injection, schedule: Q04DX002 (ip), vehicle: Klucel (hydroxypropylcellulose) (HPC)) 104 % of control; (dose: 100.0 mg/kg/injection, schedule: Q04DX002 (ip), vehicle: Klucel (hydroxypropylcellulose) (HPC)) 100 % of control; (dose: 200.0 mg/kg/injection, schedule: Q04DX002 (ip), vehicle: Klucel (hydroxypropylcellulose) (HPC)) 104 % of control.

For the compound `NC(Cc1cccnc1)C(=O)O` (configuration not stated), the T/C (dose: 100.0 mg/kg/injection, schedule: Q01DX001 (ip), vehicle: saline with Tween-80) is 109 % of control; the T/C (dose: 200.0 mg/kg/injection, schedule: Q01DX001 (ip), vehicle: saline with Tween-80) is 103 % of control; the T/C (dose: 400.0 mg/kg/injection, schedule: Q01DX001 (ip), vehicle: saline with Tween-80) is 98 % of control.
